In patent EP0565593B1, “REDUCING PESTICIDAL INTERACTIONS IN CROPS” (priority 1990, dated 1992):

System: Velvetleaf (VELE)
Experiment: Greenhouse test Procedure VII (same examples)
Format: in vivo, Abutilon theophrasti
Conditions: Antidote + Biocide No. 1 in furrow
From the text: This procedure describes interaction among herbicide, biocide and antidote when the biocide and the antidote is applied to a soil furrow containing crop seed before emergence of the crop and the herbicide is applied after emergence of the crop and weeds. The soil and planting depth was described in Procedure IV. The containers for comparison, the biocide and antidote applications to soil furrows were described in Procedure VI. In this procedure, the seed beds of the first, second, third and fourth containers are covered by soil layers not treated with herbicide. The containers were then placed on a bench in a greenhouse and subirrigated as required for the duration of the test. The herbicide, dispersed or dissolved in water containing 0.25% v/v nonionic surfactant (X-77) was applied by a track sprayer (187 L/ha) to the emerged plants of the second, third and fourth containers about five days after planting. All treatments were run in duplicate. Plant response was observed according to Procedure IV. Variations in this procedure will be noted in the examples.
In this example, tests were conducted according to Procedure VII for the POE application of the herbicides following in-furrow application of COUNTER® 15G insecticide (BIOCIDE No. 1) and the antidote on the pre-planted test seeds. In this test, the herbicides were Nos. 1 (MON-12000), 10 (ALLY®) and #4 (HARMONY®) and the Antidote Nos. 1, 7, 12 and 33.
These in-furrow treatments comprised a 50-50 mix of blended granules of COUNTER with and without 5G granular antidotes at 7.4 + 7.4 mg/cm or 1.1 + 0.37 mg active ingredient (a.i.)/cm. The in-furrow initiation of the test was followed five (5) days later with POE application of the herbicides; observations were made eight (8) days later. Table 38 […]

N#CCOc1ccc(Cl)c2cccnc12 [compound 33]
% Inhibition VELE (Herbicide No. 1 0.14 Kg/Ha POE, 8 days after POE): 90%
% Inhibition VELE (Herbicide No. 4 0.17 Kg/Ha POE, 8 days after POE): 90%
% Inhibition VELE (Herbicide No. 5 0.07 Kg/Ha POE, 8 days after POE): 90%
% Inhibition VELE (Herbicide No. 6 0.01 Kg/Ha POE): 65%
% Inhibition VELE (Herbicide No. 7 0.56 Kg/Ha POE, 8 days after POE): 65%
% Inhibition VELE (Herbicide No. 9 0.009 Kg/Ha POE): 85%
% Inhibition VELE (Herbicide No. 10 0.002 Kg/Ha POE, 8 days after POE): 90%
% Inhibition VELE (Herbicide No. 15 0.0044 Kg/Ha POE, 8 days after POE): 80%
% Inhibition VELE (Herbicide No. 16 0.01 Kg/Ha POE): 40%
% Inhibition VELE (Herbicide No. 18 0.0044 Kg/Ha POE): 65%
% Inhibition VELE (Herbicide No. 19 0.28 Kg/Ha POE): 60%
% Inhibition VELE (Herbicide No. 21 0.14 Kg/Ha POE): 90%
% Inhibition VELE (Herbicide No. 23 0.0006 Kg/Ha POE): 70%
